Patent US4692511A, “Peptide antagonists for the C5a anaphylatoxin” (Immunetech Pharmaceuticals, priority 1984, dated 1987)
Peptide text beside a SMILES is read from it.

Molecular target: T1, C5a receptor (Homo sapiens, UniProt P21730)
T1 sequence (P21730 1-350): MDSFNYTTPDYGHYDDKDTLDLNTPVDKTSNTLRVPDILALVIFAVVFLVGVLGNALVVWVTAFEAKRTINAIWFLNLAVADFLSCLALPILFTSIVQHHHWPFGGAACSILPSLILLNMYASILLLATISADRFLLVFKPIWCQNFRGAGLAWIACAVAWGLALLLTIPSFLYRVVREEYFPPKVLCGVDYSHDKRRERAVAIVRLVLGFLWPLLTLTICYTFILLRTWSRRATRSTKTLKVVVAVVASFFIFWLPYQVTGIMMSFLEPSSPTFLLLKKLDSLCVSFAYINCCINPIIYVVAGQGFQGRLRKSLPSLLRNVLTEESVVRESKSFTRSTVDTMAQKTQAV
Test: C5a receptor blocking activity of the peptides of the invention

C5a blocking activity: displays C5a blocking activity
Compound: C[C@H](NC(=O)CNC(=O)[C@@H](N)CC(=O)O)C(=O)O [Asp-Gly-Ala] (H-Asp-Gly-Ala-OH)
